Residue numbers refer to the chain shown, from its start. “Also recorded” adds a separate entry of the source.
B1: βigh3-D-I: recombinant His-tagged 1st fas-1 domain of human βig-h3, amino acid residues 133 to 236 (protein)
chain: EGPGSFTIFAPSNEAWASLPAEVLDSLVSNVNIELLNALRYHMVGRRVLTDELKHGMTLTSMYQNSNIQIHHYPNGIVTVNCARLLKADHHATNGVVHLIDKVIHHHHHH
B2: βigh3-D-IV: recombinant His-tagged 4th fas-1 domain of human βig-h3, amino acid residues 501 to 632 (protein)
chain: MGTVMDVLKGDNRFSMLVAAIQSAGLTETLNREGVYTVFAPTNEAFRALPPRERSRLLGDAKELANILKYHIGDEILVSGGIGALVRLKSLQGDKLEVSLKNNVVSVNKEPVAEPDIMATNGVVHVITNVLHHHHHH
B3: βigh3 D-IV-PDs: βigh3 D-IV mutant having Ser instead of Ile618 (protein)
chain: B2 chain with I117S
B4: βigh3 DIV-sas: βigh3 D-IV mutant in which the three amino acids Pro616, Asp617, Ile618 were mutated to Ser, Ala, Ser (protein)
chain: B2 chain with P115S, D116A, I117S
B5: βigh3 D-IV-sDI: βigh3 D-IV mutant having Ser instead of Pro616 (protein)
chain: B2 chain with P115S
B6: βigh3 D-IV-Pal: βigh3 D-IV mutant having Ala instead of Asp617 (protein)
chain: B2 chain with D116A
B7: βigh3-D-II: recombinant His-tagged 2nd fas-1 domain of human βig-h3, amino acid residues 242 to 372 (protein)
chain: NIQQIIEIEDTFETLRAAVAASGLNTMLEGNGQYTLLAPTNEAFEKIPSETLNRILGDPEALRDLLNNHILKSAMCAEAIVAGLSVETLEGTTLEVGCSGDMLTINGKAIISNKDILATNGVIHYIDELLIHHHHHH
B8: βigh3-D-III: recombinant His-tagged 3rd fas-1 domain of human βig-h3, amino acid residues 373 to 501 (protein)
chain: PDSAKTLFELAAESDVSTAIDLFRQAGLGNHLSGSERLTLLAPLNSVFKDGTPPIDAHTRNLLRNHIIKDQLASKYLYHGQTLETLGGKKLRVFVYRNSLCIENSCIAAHDKRGRYGTLFTMDRVLTPPHHHHHH

Key:
Type in all cases: cell-based
[1] = test system: HCE cells; assay: Effect of synthetic peptides on βig-h3-mediated HCE cell adhesion; conditions: 100 μM peptide; for cell detachment activity: HCE cell adhesion to βig-h3, FIG. 8a; for inhibition of HCE cell adhesion to βig-h3: preincubation 30 min, dishes coated with 10 μg/ml βig-h3, FIG. 8a
Procedure: (§1) The recombinant βig-h3 fas-1 domain proteins prepared above were assayed for cell attachment activity. First, the recombinant βig-h3 proteins were let to adhere to the bottoms of 96-well microculture plates (Falcon) by incubation at 37° C. for 1 hour and blocked with PBS containing 0.2% BSA. HCE cells were suspended in culture media at a density of 2×10^5 cells/ml. 0.1 ml of the cell suspension was added to each well of the plates coated with the recombinant proteins. Following incubation at 37° C. for 1 hour, unattached cells were removed by washing with PBS. Attached cells were incubated for 1 hour at 37° C. in 50 mM citrate buffer, pH 5.0, containing 3.75 mM p-nitrophenol-N-acetyl 1-β-D-glycosaminide as a hexosaminidase substrate and 0.25% Triton X-100, followed by the addition of 50 mM glycine buffer, pH 10.4, containing 5 mM EDTA to block the enzyme activity. A measurement was made of absorbance at 405 nm in a Multiskan MCC/340 microplate reader.
Effect of the peptides containing conserved sequences of fas-1 domains of βig-h3 on βig-h3-mediated cell adhesion was examined with HCE cells. Cells were preincubated for 30 min in media containing 100 μM of each of the four synthetic peptides or no peptides and transferred to plastic culture dishes coated with 10 μg/ml BSA or 10 μg/ml βig-h3. The attached cells were subjected to quantitative hexosaminidase analysis as in Example 1-2.

[2] = test system: HCE cells; assay: Cell adhesion of HCE cells to surfaces coated with synthetic peptides; conditions: plates coated with peptide at 0-120 μM, HCE cells 37° C. 1 hour, FIG. 9a
Procedure: as §1
An experiment was carried out to determine whether each of the synthetic peptides is able to mediate cell adhesion. Well plates were coated with each peptide at concentrations of 0, 20, 40, 60, 80, 100 and 120 μM and then incubated with HCE cells at 37° C. for 1 hour. The attached cells were quantitatively analyzed with hexosaminidase as in Example 1-2.

[3] = test system: HCE cells; assay: Effect of synthetic peptides on HCE cell adhesion to various extracellular matrix proteins; conditions: 100 μM peptide; for inhibition of cell adhesion to fibronectin: plates coated with fibronectin; for inhibition of cell adhesion to fibronectin / inhibition of cell adhesion to laminin / inhibition of cell adhesion to type I collagen / inhibition of cell adhesion to type II collagen / inhibition of cell adhesion to vitronectin: FIG. 10a; for inhibition of cell adhesion to laminin: plates coated with laminin; for inhibition of cell adhesion to type I collagen: plates coated with type I collagen; for inhibition of cell adhesion to type II collagen: plates coated with type II collagen; for inhibition of cell adhesion to vitronectin: plates coated with vitronectin; for inhibition of cell adhesion to βig-h3: plates coated with βig-h3, FIG. 10a
Procedure: as §1
To determine whether the inhibitory activity of synthetic peptides EPDIM (SEQ ID NO:3 and NKDIL (SEQ ID NO:2) against cell adhesion is specific to βig-h3, effects of the synthetic peptides on cell adhesion to various matrix proteins were examined. HCE cells were preincubated in media added with 100 μM of the synthetic peptide EPDIM (SEQ ID NO:3) or NKDIL (SEQ ID NO:2) or none of them and then applied to plates coated with various matrix proteins, including βig-h3, fibronectin, laminin, vitronectin, type I and type II collagen. After 1 hour of incubation, the attached cells were quantitatively analyzed with hexosaminidase as in Example 1-2.

[4] = test system: HCE cells; assay: Inhibition of HCE cell adhesion to βig-h3, fibronectin and laminin at various concentrations of EPDIM; conditions: EPDIM 0-1,200 μM, FIG. 10b
Procedure: as §1
HCE cells were incubated in media containing the synthetic peptide EPDIM (SEQ ID NO:3) at concentrations of 0, 200, 400, 600, 800, 1,000 and 1,200 μM and applied to plates coated with βig-h3, fibronectin and laminin. Following incubation for 1 hour, the attached cells were quantitatively analyzed with hexosaminidase as in Example 1-2.

[5] = test system: α3β1 integrin; assay: Function-blocking anti-integrin antibodies on HCE cell adhesion to plates coated with EPDIM or NKDIL; conditions: plates coated with 100 μM peptide, antibodies 5 μg/ml, FIG. 9b
Procedure: Function-blocking experiments using monoclonal antibodies against various integrin subunits were carried out to examine whether α3β1 integrin, known as a surface receptor of βig-h3, would be involved in the cell adhesion mediated by the synthetic peptides EPDIM (SEQ ID NO:3) and NKDIL (SEQ ID NO:2). HCE was preincubated at 37° C. for 30 mm in the presence of each of the monoclonal antibodies (5 μg/ml) against different types of integrins. The preincubated cells were transferred onto plates precoated with 100 μM EPDIM (SEQ ID NO:3) or 100 μM NKDIL (SEQ ID NO:2) and then incubated further at 37° C. for 1 hour, followed by the quantitative analysis with hexosaminidase substrate as in Example 1-2.

[6] = test system: HCE cells; assay: Cell attachment activity of recombinant βig-h3 fas-1 domain proteins coated on plates (hexosaminidase assay); conditions: HCE cells on plates coated with the recombinant protein, 37° C. 1 hour, FIG. 2
Procedure: as §1

[7] = test system: HCE cells; assay: Cell attachment activity of substitution mutants of the 4th fas-1 domain of βig-h3; conditions: HCE cells on plates coated with the mutant protein, 37° C. 1 hour, FIG. 6
Procedure: as §1
Examination was made of the cell attachment activity of the mutated proteins wherein the Pro616, Asp617 and Ile618 of βigh3 D-IV were substituted, in combination, with Ser, Ala and Ser, respectively, that is, βigh3 D-IV-sDI, βigh3 D-IV-Pal, βigh3 D-IV-PDs, and βigh3 D-IV-sas. To this end, HCE cells were incubated at 37° C. for 1 hour in well plates coated with the mutant proteins, followed by subjecting the attached cells to the hexosaminidase substrate as in Example 1-2.

α3β1 integrin, sequence (P26006 33-872 limits assumed): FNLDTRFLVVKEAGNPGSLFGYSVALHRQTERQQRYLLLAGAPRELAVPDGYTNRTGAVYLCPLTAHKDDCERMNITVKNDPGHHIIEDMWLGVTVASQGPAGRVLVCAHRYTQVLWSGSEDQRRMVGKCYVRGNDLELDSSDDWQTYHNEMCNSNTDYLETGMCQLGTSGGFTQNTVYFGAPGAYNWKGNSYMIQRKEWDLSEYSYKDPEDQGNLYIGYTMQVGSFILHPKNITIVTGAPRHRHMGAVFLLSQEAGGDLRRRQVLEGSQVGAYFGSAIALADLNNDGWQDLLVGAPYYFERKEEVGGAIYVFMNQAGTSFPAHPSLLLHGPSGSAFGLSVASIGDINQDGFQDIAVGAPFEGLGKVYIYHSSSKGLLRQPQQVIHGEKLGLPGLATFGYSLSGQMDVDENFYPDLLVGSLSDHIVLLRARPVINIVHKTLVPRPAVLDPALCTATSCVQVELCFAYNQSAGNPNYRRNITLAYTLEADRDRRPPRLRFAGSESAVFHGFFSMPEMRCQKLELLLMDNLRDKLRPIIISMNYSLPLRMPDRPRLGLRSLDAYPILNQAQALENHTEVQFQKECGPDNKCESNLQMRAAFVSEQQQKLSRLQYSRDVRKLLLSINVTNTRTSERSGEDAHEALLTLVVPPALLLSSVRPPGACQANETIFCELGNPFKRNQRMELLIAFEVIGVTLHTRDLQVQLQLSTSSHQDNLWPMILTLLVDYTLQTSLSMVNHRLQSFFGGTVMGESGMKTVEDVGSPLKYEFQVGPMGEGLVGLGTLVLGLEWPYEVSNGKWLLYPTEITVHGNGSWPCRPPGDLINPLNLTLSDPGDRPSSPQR
α3β1 integrin, sequence (P26006 876-1051 limits assumed): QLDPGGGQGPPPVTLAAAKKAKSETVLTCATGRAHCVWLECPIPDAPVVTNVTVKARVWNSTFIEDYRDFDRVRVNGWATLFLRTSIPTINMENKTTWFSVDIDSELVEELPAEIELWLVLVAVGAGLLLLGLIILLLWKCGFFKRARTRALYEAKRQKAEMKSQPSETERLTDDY
α3β1 integrin, sequence (P05556 21-798, further chain): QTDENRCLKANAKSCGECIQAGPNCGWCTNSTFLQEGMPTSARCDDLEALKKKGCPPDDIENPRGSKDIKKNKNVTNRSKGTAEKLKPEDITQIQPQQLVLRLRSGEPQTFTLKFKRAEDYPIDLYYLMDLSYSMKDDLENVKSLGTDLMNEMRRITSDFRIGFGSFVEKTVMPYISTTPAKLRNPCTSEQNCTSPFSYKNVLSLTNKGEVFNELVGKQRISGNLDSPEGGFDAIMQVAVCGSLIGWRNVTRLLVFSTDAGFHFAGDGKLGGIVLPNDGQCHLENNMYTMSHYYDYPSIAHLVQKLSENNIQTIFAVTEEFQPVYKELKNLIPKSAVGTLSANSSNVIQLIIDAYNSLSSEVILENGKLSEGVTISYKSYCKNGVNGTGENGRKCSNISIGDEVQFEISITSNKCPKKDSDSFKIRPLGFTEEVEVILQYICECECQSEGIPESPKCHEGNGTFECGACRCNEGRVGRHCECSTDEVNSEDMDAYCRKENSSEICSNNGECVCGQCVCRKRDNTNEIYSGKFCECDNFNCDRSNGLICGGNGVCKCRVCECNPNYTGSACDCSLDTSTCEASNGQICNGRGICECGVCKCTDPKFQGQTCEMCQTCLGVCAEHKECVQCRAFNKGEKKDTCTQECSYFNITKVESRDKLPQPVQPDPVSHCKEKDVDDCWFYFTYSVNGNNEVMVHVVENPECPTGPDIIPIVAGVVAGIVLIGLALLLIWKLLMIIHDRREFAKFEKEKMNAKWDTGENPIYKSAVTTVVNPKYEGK

Molecule | cell detachment activity [1] | inhibition of HCE cell adhesion to βig-h3 [1] | ability to mediate cell adhesion [2] | cell attachment and spreading activity [6] | cell attachment activity [7] | also measured
DEMPI [reference compound] | failed to show; also recorded: low cell detachment activity | did not affect cell adhesion | not active in cell adhesion | – | – | –
EPDIM [synthetic peptide, a.a] | very excellent cell detachment effect; also recorded: excellent cell detachment activity | significant suppression of the cell attachment activity; also recorded: significantly blocked | capable of mediating cell adhesion in dose-dependent manners; also recorded: mediate cell adhesion in dose-dependent manners | – | – | inhibition of cell adhesion to fibronectin [3]: weakly inhibited; inhibition of cell adhesion to laminin [3]: efficiently blocked; inhibition of cell adhesion to type I collagen [3]: did not affect; inhibition of cell adhesion to type II collagen [3]: did not affect; inhibition of cell adhesion to vitronectin [3]: did not affect; inhibition of cell adhesion to βig-h3 [3]: efficiently blocked; inhibitory effect on cell adhesion to fibronectin [4]: dose-dependent; inhibitory effect on cell adhesion to laminin [4]: dose-dependent; inhibitory effect on cell adhesion to βig-h3 [4]: dose-dependent; α3β1 integrin as receptor in peptide-mediated cell adhesion [5]: revealed to act as a receptor
KADHH [synthetic peptide, a.a] | relatively very low cell detachment effects | weak suppression of cell adhesion; also recorded: weakly inhibited | low in activity compared to NKDIL | – | – | –
NKDIL [synthetic peptide, a.a] | very excellent cell detachment effect; also recorded: excellent cell detachment activity | significant suppression of the cell attachment activity; also recorded: significantly blocked | capable of mediating cell adhesion in dose-dependent manners; also recorded: mediate cell adhesion in dose-dependent manners | – | – | inhibition of cell adhesion to fibronectin [3]: weakly inhibited; inhibition of cell adhesion to laminin [3]: efficiently blocked; inhibition of cell adhesion to type I collagen [3]: did not affect; inhibition of cell adhesion to type II collagen [3]: did not affect; inhibition of cell adhesion to vitronectin [3]: did not affect; inhibition of cell adhesion to βig-h3 [3]: efficiently blocked; α3β1 integrin as receptor in peptide-mediated cell adhesion [5]: revealed to act as a receptor
B1 | – | – | – | weak activity | – | –
B2 | – | – | – | comparable to the activity of wild type βig-h3 | – | –
B3 | – | – | – | – | significantly blocked cell adhesion | –
B4 | – | – | – | – | far lower than the control | –
B5 | – | – | – | – | comparable to that of the wild type control | –
B6 | – | – | – | – | significantly blocked cell adhesion | –
B7 | – | – | – | comparable to the activity of wild type βig-h3 | – | –
B8 | – | – | – | almost no activity | – | –

Reference: patent US7250400B2, “Peptides and derivatives thereof showing cell attachment, spreading and detachment activity” (Regen Biotech, Inc., priority 2002, dated 2007)
